≈ marks a conversion by molar mass, not a printed value.
Key:
Staphylococcus aureus [1] = assay: Antibacterial activity against Staphylococcus aureus 6538 assessed as bacterial growth inhibition incubated for 24 hrs; assay type: functional
Staphylococcus aureus [2] = assay: Antibacterial activity against Methicillin-resistant Staphylococcus aureus assessed as bacterial growth inhibition incubated for 24 hrs; assay type: functional
Plasmodium falciparum [3] = assay: microbe, parasite or virus in culture
DNA gyrase = DNA gyrase (Escherichia coli, UniProt P0AES4+P0AES6); assay: Inhibition of Escherichia coli DNA gyrase supercoiling activity by Microplate Assay kit method; assay type: protein-complex assay
Rattus norvegicus [4] = assay: Antiinflammatory activity in rat assessed as reduction in edema at 17 mg/kg, ip measured after 5 hrs relative to control; assay type: functional; parameters: scale not given: the % may be the effect or the level left
MCF7 [5] = assay: Anticancer activity against human MCF7 cells assessed a cell growth inhibition incubated for 48 hrs by SRB assay; assay type: functional, cell-based; conditions: MCF7, 48 h
Rattus norvegicus [6] = assay: Antiinflammatory activity in rat assessed as reduction in carrageenan induced edema at 10 mg/kg, po measured after 4 to 5 hrs relative to control; assay type: functional; parameters: scale not given: the % may be the effect or the level left; conditions: time 4-5 hrs
Rattus norvegicus [7] = assay: Antiinflammatory activity in rat assessed as reduction in xylene induced edema at 10 mg/kg, po by CPE test relative to control; assay type: functional; parameters: scale not given: the % may be the effect or the level left
Tubulin [8] = assay: Inhibition of tubulin (unknown origin); assay type: protein-complex assay, Homo sapiens
[9] = target: Epidermal growth factor receptor (Homo sapiens, UniProt P00533); assay: Inhibition of EGFR (unknown origin) […] insect sf9 cells incubated for 1 hrs in presence of ATP
[10] = Inhibition of BRAF V600E mutant (unknown origin) incubated for 25 mins in presence of ATP by ELISA assay; parameters: species or system Homo sapiens
DU-145 = assay: Anticancer activity against human DU-145 cells assessed as cell growth inhibition incubated for 48 hrs by MTT assay; assay type: functional, cell-based; conditions: DU-145, 48 h
BT-20 [11] = assay: Anticancer activity against human BT-20 cells assessed as cell growth inhibition incubated for 48 hrs by MTT assay; assay type: functional, cell-based; conditions: BT-20, 48 h
[12] = Anticancer activity against human SK-MEL-128 cells assessed as cell growth inhibition incubated for 48 hrs by MTT assay; assay type: functional, cell-based; conditions: SK-MEL-128, 48 h
BT-20 [13] = assay: Potency index, ratio of test compound IC50 to cisplatin IC50 for antiproliferative against human BT-20 cells; assay type: functional
A549 = assay: Anticancer activity against human A549 cells assessed as cell growth inhibition incubated for 48 hrs by MTT assay; assay type: functional, cell-based; conditions: A549, 48 h
[14] = test system: Mycobacterium tuberculosis; assay: Antimycobacterial activity against Mycobacterium tuberculosis H37Rv measured after 7 days; assay type: functional; conditions: 168 h, time 7 day
[15] = Protection index, ratio of TD50 for neurotoxicity in ip dosed mouse to ED50 for anticonvulsant activity in ip dosed mouse; assay type: toxicity, organism-based; conditions: in vivo, read-out: Ratio TD50/ED50
Mus musculus [16] = assay: Anticonvulsant activity in ip dosed mouse assessed as protection against PTZ-induced seizure; assay type: functional
[17] = test system: Middle East respiratory syndrome-related coronavirus; assay: Antiviral activity of Middle East respiratory syndrome coronavirus; assay type: functional, organism-based
Mus musculus [18] = assay: Anticonvulsant activity in ip dosed mouse; assay type: functional
Escherichia coli = assay: Antibacterial activity against Escherichia coli ATCC 25922 assessed as bacterial growth inhibition by double micro dilution method; assay type: functional
Enterococcus faecalis = assay: Antibacterial activity against Enterococcus faecalis ATCC 29212 assessed as bacterial growth inhibition by double micro dilution method; assay type: functional
Staphylococcus aureus [19] = assay: Antibacterial activity against Staphylococcus aureus ATCC 25923 assessed as bacterial growth inhibition by double micro dilution method; assay type: functional
[20] = test system: Acinetobacter haemolyticus; assay: Antibacterial activity against Acinetobacter haemolyticus ATCC 19002 assessed as bacterial growth inhibition by double micro dilution method; assay type: functional
Klebsiella pneumoniae = assay: Antibacterial activity against Klebsiella pneumoniae ATCC 13883 assessed as bacterial growth inhibition by double micro dilution method; assay type: functional
Pseudomonas aeruginosa = assay: Antibacterial activity against Pseudomonas aeruginosa ATCC 27853 assessed as bacterial growth inhibition by double micro dilution method; assay type: functional
HCT-116 = assay: Anticancer activity against human HCT-116 cells assessed as cell growth inhibition
HeLa = assay: Antiproliferative activity against human HeLa cells assessed as cell growth inhibition incubated for 48 hrs by MTT assay; assay type: functional, cell-based
Jurkat = assay: Antiproliferative activity against human jurkat cells assessed as cell growth inhibition incubated for 48 hrs by MTT assay; assay type: functional, cell-based
HT-29 = assay: Antiproliferative activity against human HT-29 cells assessed as cell growth inhibition incubated for 48 hrs by MTT assay; assay type: functional, cell-based; conditions: HT-29, 48 h
Tubulin [21] = target: Tubulin (Bos taurus, UniProt Q6B856+Q862L2+Q862F3); assay: Inhibition of bovine brain tubulin polymerization incubated for 20 mins in presence of GTP
RS4-11 = assay: Antiproliferative activity against human RS4-11 cells assessed as cell growth inhibition incubated for 48 hrs by MTT assay; assay type: functional, cell-based; conditions: RS4-11, 48 h
MCF7 [22] = assay: Antiproliferative activity against human MCF7 cells assessed as cell growth inhibition incubated for 48 hrs by MTT assay; assay type: functional, cell-based; conditions: MCF7, 48 h
Rattus norvegicus [23] = species: Rattus norvegicus; assay: Bronchodilator activity in Sprague-Dawley rat; assay type: functional, organism-based
[24] = Inhibition of 5 alpha reductase (unknown origin)
[25] = test system: Xanthomonas oryzae pv. oryzae; assay: Antibacterial activity against Xanthomonas oryzae pv. oryzae assessed as bacterial growth inhibition by turbidimetric method; assay type: functional, organism-based
Plasmodium falciparum [26] = assay: Antimalarial activity against Chloroquine resistant Plasmodium falciparum W2; assay type: functional, organism-based

Chain of Epidermal growth factor receptor (P00533 whole entry): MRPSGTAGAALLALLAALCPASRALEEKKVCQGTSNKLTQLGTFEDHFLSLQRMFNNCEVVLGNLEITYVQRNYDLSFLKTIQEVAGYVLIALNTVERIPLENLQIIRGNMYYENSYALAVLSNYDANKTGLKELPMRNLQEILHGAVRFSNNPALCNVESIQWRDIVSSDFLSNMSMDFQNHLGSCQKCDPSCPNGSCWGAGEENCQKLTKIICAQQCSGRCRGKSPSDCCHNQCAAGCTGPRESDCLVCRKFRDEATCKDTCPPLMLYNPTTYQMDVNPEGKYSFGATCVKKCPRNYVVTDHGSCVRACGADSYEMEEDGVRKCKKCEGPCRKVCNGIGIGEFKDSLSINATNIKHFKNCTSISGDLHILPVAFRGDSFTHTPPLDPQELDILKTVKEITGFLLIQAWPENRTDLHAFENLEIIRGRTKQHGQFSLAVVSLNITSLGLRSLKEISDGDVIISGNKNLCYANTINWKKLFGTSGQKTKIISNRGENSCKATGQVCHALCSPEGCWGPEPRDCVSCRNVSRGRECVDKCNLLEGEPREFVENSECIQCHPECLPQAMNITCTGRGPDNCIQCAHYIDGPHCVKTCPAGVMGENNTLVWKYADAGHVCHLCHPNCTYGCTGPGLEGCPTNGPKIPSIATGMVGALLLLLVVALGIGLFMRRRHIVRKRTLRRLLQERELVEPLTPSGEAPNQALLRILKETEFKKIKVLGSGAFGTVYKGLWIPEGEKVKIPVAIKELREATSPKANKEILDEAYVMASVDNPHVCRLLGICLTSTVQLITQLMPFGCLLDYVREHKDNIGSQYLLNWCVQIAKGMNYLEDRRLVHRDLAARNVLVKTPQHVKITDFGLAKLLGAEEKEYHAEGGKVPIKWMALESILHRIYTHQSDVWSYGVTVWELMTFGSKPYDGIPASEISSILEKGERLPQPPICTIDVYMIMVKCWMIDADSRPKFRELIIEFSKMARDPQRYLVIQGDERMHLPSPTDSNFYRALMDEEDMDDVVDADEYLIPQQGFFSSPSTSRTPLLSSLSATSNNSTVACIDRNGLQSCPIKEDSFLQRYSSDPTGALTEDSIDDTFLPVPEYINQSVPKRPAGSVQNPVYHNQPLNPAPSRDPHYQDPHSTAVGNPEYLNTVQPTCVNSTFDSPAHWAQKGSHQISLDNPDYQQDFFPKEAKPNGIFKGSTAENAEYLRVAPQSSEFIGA

CSc1nc(Cl)cc(Sc2nnc(-c3cc(C(F)(F)F)cc(C(F)(F)F)c3)[nH]2)n1
MIC (Staphylococcus aureus [1]): 1.8 µM (≈ 0.849 µg/mL)
MIC (Staphylococcus aureus [2]): 0.75 µg/mL (≈ 1.59 µM)

Nc1cc(Cl)c(S(N)(=O)=O)cc1-c1nnc(S)n1-c1ccccc1
IC50 (Plasmodium falciparum [3]): 0.023 µg/mL (≈ 0.0602 µM)

CCn1cc(-c2nc(/N=C/c3ccc(F)cc3)n[nH]2)c(=O)c2ccc(C)nc21
IC50 (DNA gyrase): 9.75 µM

C=Cn1c(SCC(=O)Nc2ccc(/C(C)=N/O)cc2)nnc1-c1cc(-c2ccc(OC)cc2)nc2ccccc12
Activity (Rattus norvegicus [4]): 111%

CC/C(=C(\c1ccccc1)c1ccc(OCCN(C)C)cc1)c1ccccc1 [TAMOXIFEN]
IC50 (MCF7 [5]): 8.38 µg/mL (≈ 22.6 µM)

O=C(CSc1nnc(COc2ccccc2)n1-c1ccc(Cl)cc1)Nc1nc2ccccc2s1
Activity (Rattus norvegicus [6]): 84.43%

Fc1cc(Cl)cc(-c2nn3c(CN4c5ccccc5Sc5ccccc54)nnc3s2)c1
Activity (Rattus norvegicus [7]): 83.06%

COc1ccccc1-n1c(S)nnc1-c1cc(S(N)(=O)=O)c(Cl)cc1N
IC50 (Plasmodium falciparum [3]): 0.025 µg/mL (≈ 0.0607 µM)

Clc1cccc(Cl)c1Nc1ccccc1Cc1nncn1Nc1nc2ccccc2s1
Activity (Rattus norvegicus [6]): 85.31%

COc1ccc(C(=O)n2nc(-c3cccnc3)nc2N)cc1
IC50 (Tubulin [8]): 0.957 µM
IC50 [9]: 3.6 µM
IC50 [10]: 1.9 µM

Nn1c(Cc2ccccc2Br)nn(CC(=O)NNC(=O)c2cc3cc(Cl)cc(Cl)c3oc2=O)c1=O
IC50 (DU-145): 3.1 µg/mL (≈ 5.32 µM)
IC50 (BT-20 [11]): 3.1 µg/mL (≈ 5.32 µM)
IC50 [12]: 3.1 µg/mL (≈ 5.32 µM)
Ratio IC50 (BT-20 [13]): 5.2
IC50 (A549): 3.1 µg/mL (≈ 5.32 µM)

O=[N+]([O-])c1ncn(CCCCNS(=O)(=O)c2sccc2Cl)n1
MIC [14]: 3.13 µg/mL (≈ 8.56 µM)

CCCOc1ccc(-c2csc3nncn23)cc1
selectivity ratio [15]: 1.9
ED50 (Mus musculus [16]): 63.4 mg/kg
TD50 (Mus musculus [16]): 106 mg/kg

Sc1nnc(NNc2ccc(Cl)cc2)n1NC1C=CCC1 (centres undefined)
IC50 [17]: 0.51 µM

CC[C@@H](CO)NCCN[C@@H](CC)CO [ETHAMBUTOL]
MIC [14]: 6.25 µg/mL (≈ 30.6 µM)

O=c1[nH]nc2n1-c1ccc(OCc3ccc(F)cc3)cc1SC2
ED50 (Mus musculus [18]): 9.2 mg/kg
selectivity ratio [15]: 15.4

COc1ccc(-c2cc(-c3nnc(SCC(=O)Nc4ccc(/C(C)=N/O)cc4)n3-c3ccccc3)c3cc(C)ccc3n2)cc1
Activity (Rattus norvegicus [4]): 101%

O=C(O)c1cn(C2CC2)c2cc(N3CCN(Cn4nc(CN5CCN(c6ccccc6)CC5)n(-c5ccccc5)c4=S)CC3)c(F)cc2c1=O
MIC (Escherichia coli): 0.125 µg/mL (≈ 0.18 µM)
MIC (Enterococcus faecalis): 0.125 µg/mL (≈ 0.18 µM)
MIC (Staphylococcus aureus [19]): 0.125 µg/mL (≈ 0.18 µM)
MIC [20]: 0.125 µg/mL (≈ 0.18 µM)
MIC (Klebsiella pneumoniae): 0.125 µg/mL (≈ 0.18 µM)
MIC (Pseudomonas aeruginosa): 0.125 µg/mL (≈ 0.18 µM)

Sc1nnc(NNc2ccc(I)cc2)n1NC1C=CCC1 (centres undefined)
IC50 [17]: 0.47 µM

O=c1c2c3c(sc2n2c(CN4CCN(c5ccc(Cl)cc5)CC4)nnc2n1Cc1ccccc1)CCCC3
IC50 (HCT-116): 6.56 µM

COc1ccc(-c2nc(N)n(C(=O)c3cc(OC)c(OC)c(OC)c3)n2)cc1
IC50 (HeLa): < 1 µM
IC50 (Jurkat): < 1 µM
IC50 (HT-29): < 1 µM
IC50 (Tubulin [21]): 0.97 µM
IC50 (RS4-11): < 1 µM
IC50 (MCF7 [22]): < 1 µM

Cn1c(=O)c2nc[nH]c2n(C)c1=O [THEOPHYLLINE]
EC50 (Rattus norvegicus [23]): 425 µM

O=c1[nH]nc2n1-c1ccc(OCc3ccc(F)cc3)cc1OCC2
ED50 (Mus musculus [18]): 26.3 mg/kg
selectivity ratio [15]: 12.6

CC(C)(C#N)c1cc(Cn2cncn2)cc(C(C)(C)C#N)c1
ED50 [24]: 1.09 µM

CCOC(=O)c1nc(Sc2nnc3c(Cl)cccn23)c2ccccc2n1
EC50 [25]: 7.2 µg/mL (≈ 18.7 µM)

Cc1cc(Nc2ccc(C(F)(F)F)cc2)n2nc(C(F)(F)F)nc2n1
IC50 (Plasmodium falciparum [26]): 0.023 µM

NC(=O)N1c2ccccc2C=Cc2ccccc21 [CARBAMAZEPINE]
ED50 (Mus musculus [18]): 11.8 mg/kg
selectivity ratio [15]: 6.4

Reference: ChEMBL document CHEMBL5244255, “An insight on medicinal attributes of 1,2,4-triazoles” (Eur J Med Chem, 2020)
